Measurements as given in patent US20170136021A1, “METHODS AND COMPOSITIONS FOR TREATING ENVELOPED VIRUSES” (priority 2014, published 2017).

Assays:
[1] = tested on: Ebola virus; assay type: cell-based
[2] = tested on: rVSV-EBOV-GP; test: organism not typed; assay type: cell-based, vesicular stomatitis virus expressing EBOV glycoprotein
[3] = tested on: Ebola virus; test: microbe, parasite or virus in culture; assay type: cell-based; settings: for EC50: Zaire ebolavirus, Vero, read-out: EC50 of Ebola infection
[4] = tested on: Ebola virus; design: species or system mice; settings: mouse, in vivo

| SMILES | Ebola replication in cells [1] | percentage of Ebola positive cells versus concentration (inhibition of Ebola) [1] | Ebola entry [2] | overall infection with Ebola virus [3] | EC50 [3] | mortality of Ebola infected mice [4] | percentage survival ([4]; 30 mg/kg) | IC50 ([2]; Vero, 20 h, read-out: IC50 of viral entry inhibition) |
| --- | --- | --- | --- | --- | --- | --- | --- | --- |
| C#Cc1cccc(Nc2ncnc3cc(OCCOC)c(OCCOC)cc23)c1 [erlotinib] | reduces | inhibition of Ebola by erlotinib in a dose-dependent manner | reduced Ebola entry in a dose-dependent manner | dose-dependent reduction | 4.22 µM | reduces | 100% |  |
| CCN(CC)CCNC(=O)c1c(C)[nH]c(/C=C2\C(=O)Nc3ccc(F)cc32)c1C [sunitinib] |  |  |  |  | 2.25 µM |  |  | 6.15 µM |
